# From patent US20080200393A1, “Method and Composition For Treating Angiogenesis and For Preventing Cancer Progression and Metastasis Comprising a Prostate Secretory Protein (Psp94) Family Member” (Ambrillia Biopharma Inc., priority 2004, published 2008)
# Where no end group is shown, it is not given here.
# What was measured:
# HUVEC = HUVEC migration assay (modified Boyden chambers, gelatin-coated filters); assay type: cell-based, Human
# Description: Migration Assays. Transwells filters (8-μm pore size; Costar, Cambridge, Mass.) were pre-coated with 0.5% gelatin/PBS for 24 h at 4° C. The transwells were then washed with PBS and assembled in 24-well plates. The upper chamber of each transwell was filled with 100 μl of HUVEC (1×10^6 cells/ml) and cells were allowed to adhere for 1 h. Cells were then treated for 2 h by adding 100 μl of 2-fold concentrated drug solution prepared in serum-free medium into the upper chamber and 600 μl of the drug solution into the lower chamber. Migration was initiated by adding VEGF (10 ng/ml), or S1P (1 μM) to the lower chamber. The plate was placed at 37° C. in 5% CO2/95% air for 4 h. Cells that had migrated to the lower surface of the filters were fixed with 10% formalin phosphate and stained with 0.1% Crystal Violet/20% (v/v) methanol. The migration was quantified using computer-assisted imaging and data are expressed as the average density of migrated cells per four fields (magnification×50).
# Cells were plated onto gelatin-coated filters inserted in modified Boyden chemotactic chambers. The effect of PCK3145 on basal migration and on VEGF-induced migration was monitored by the number of cells that had migrated comparatively to untreated control cells. HUVEC were dislodged from the flasks by trypsinization, washed and resuspended in serum-free media. Cells were placed onto gelatin-coated filters inserted in chambers and incubated at 37° C., 5% CO2 for 30 min to allow adequate anchoring to the filters. The monolayers were then exposed to serum-free media containing PCK3145 (300 μg/ml) added within the upper and lower compartment of the chambers. After 2 h, VEGF (50 ng/ml) was added in the lower chamber as a chemoattractant. Cell migration was allowed to proceed for another 3 h. Filters were then fixed, stained, and the migrated cells quantified by microscopy as described in the Methods section. […] The effect of. PCK on S1P-induced HUVEC migration was also measured, but no inhibition was observed (not shown) in this particular assay.
# MMP-9 [1] = assay: Gelatin zymography of MatLyLu cell culture media; assay type: cell-based; conditions: MatLyLu cells, 500 ug/ml and 1 mg/ml, 50 ug/ml collagen type-I, serum free, 72 hrs
# Description: Zymography. Zymography is a technique generally used to analyze the activity of matrix metalloproteinases (MMPs) in biological samples. It involves the electrophoretic separation of proteins under denaturing (Sodium Dodecyl Sulfate (SDS)) but non-reducing conditions through a polyacrylamide gel containing gelatin (for example, 10% gel containing 1 mg/ml gelatin for MMP-9 and MMP-2 assays). The resolved proteins are re-natured by exchanging SDS with a non-ionic detergent such as Triton X-100 and the gel is incubated in an incubation buffer for activation of MMP-2 and MMP-9 (for example at 37° C. for 18 hrs). The gel is stained with Coomassie blue and the MMP-2 and MMP-9 bands may be visualized as clear bands against a blue background (i.e., the MMPs degrade the gelatin and are visualized as clear bands; pro MMP-2 is 68 kDa and pro-MMP-9 is 92 kDa). These bands can be quantified using densitometry. For example, prior to stimulation, quiescent HUVEC were serum-starved for 16 h in the presence or absence of PCK3145 or PD98059 and then stimulated with VEGF. […] Gelatinolytic activity was detected as unstained bands on a blue background. […]
# The media were collected after 72 hours of exposure to the PCK3145 derivative and subjected to gelatin zymography. […] The band intensities were determined using the Image Quant software (version 5.0) from molecular Dynamics. […]
# MMP-9 [2] = assay: Western blot of MMP-9 in MatLyLu cell culture media; assay type: cell-based; conditions: MatLyLu cells, 100 ug/ml, 500 ug/ml and 1 mg/ml, 72 hrs
# Description: A separate western blot experiment was performed in which MatLyLu cells were treated with 100 ug/ml, 500 ug/ml and 1 mg/ml of the PCK3145 derivative for 72 hrs. At the end of the experiment, the media were collected and concentrated 5 times using Amicon centrifugal filter devices (3500 molecular weight cut-off).
# Twenty five microliters samples were separated on SDS-PAGE gel under reducing conditions using pre-cast gels of 4-12% Bis-Tris (Invitrogen). Following electrophoresis, the proteins were transferred on nitrocellulose membrane. Non-specific binding sites were blocked using 5% skimmed milk in 10 mM phosphate buffer saline (PBS) containing 0.05% Tween-20 for 1 hour at room temperature. The membrane was later incubated with a primary antibody (monoclonal, RDI-MMP-9abm-2A5) at a concentration of 1 ug/ml (in 10 mM PBS, containing 0.5% bovine serum albumin (BSA) and 0.05% Tween-20) for 3 hours at room temperature.
# The membranes were washed three times in PBS (5 minutes each wash) to remove non-specific binding and they were incubated with the secondary antibody (Rabbit anti-mouse IgG horseradish peroxidase-conjugated (Dako no. 0260)) at a dilution of 1:5000 for one hour. Detection of specific MMP-9 protein was made by incubating the membrane in ECL™ reagent (electro-chemoluminescence, Roche) and exposing to the X-ray film.
sequence,measurement,setting,value
"EWQTDNCETCTCYET (cysteine pairing not given here) [PCK3145 derivative, PCK3145 derivative with acetylaminomethyl groups on the three cysteines]",S1P-induced HUVEC migration,HUVEC,no inhibition
same,MMP-9 secreted in the cell culture media (zymography),MMP-9 [1],dose-dependent reduction
same,MMP-9 levels (western blot),MMP-9 [2],dose-dependent reduction
